Results published in the supplement of paper PMC5908809.

What was measured:
[1] = tested on: normal NK cells expanded with K562-aAPC; assay: drug sensitivity score (DSS) (DSS units); higher = more sensitive; extreme values may be limits of the assay; settings: 72 h; IL-2 2.5 ng/mL
Method: (§1)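 Drug sensitivity and resistance testing on K562-aAPC-expanded normal NK cells: 5 concentrations (10-fold steps over a 10,000-fold range), 72 h at 37 °C, viability by CellTiter-Glo normalised to DMSO and benzethonium chloride controls; DSS from the fitted curve.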

[2] = tested on: normal primary NK cells, pool 3 (3 donors) (IL-2 2.5 ng/mL); assay: as above; settings: 72 h
KAI3 (IL-2 2.5 ng/mL) [3] = assay: as above; settings: 72 h
[4] = tested on: normal primary NK cells, pool 1 (3 donors) (IL-2 2.5 ng/mL); assay: as above; settings: 72 h
SNK-6 (IL-2 2.5 ng/mL) [5] = assay: as above; settings: 72 h
KHYG-1 (IL-2 2.5 ng/mL) [6] = assay: as above; settings: 72 h
[7] = tested on: normal primary NK cells, pool 2 (3 donors) (IL-2 2.5 ng/mL); assay: as above; settings: 72 h
NK-92 (IL-2 2.5 ng/mL) [8] = assay: as above; settings: 72 h
YT (IL-2 2.5 ng/mL) [9] = assay: as above; settings: 72 h
DERL-7 (IL-2 2.5 ng/mL) [10] = assay: as above; settings: 72 h
[11] = tested on: normal primary NK cells, pool 1 (3 donors), resting (IL-2 0 ng/mL); assay: as above; settings: 72 h
NKL (IL-2 2.5 ng/mL) [12] = assay: as above; settings: 72 h
NK-YS (IL-2 2.5 ng/mL) [13] = assay: as above; settings: 72 h
IMC-1 (IL-2 20 ng/mL) [14] = assay: as above; settings: 72 h
[15] = tested on: normal NK cells expanded with K562-aAPC; assay: percent inhibition of viability; higher = more inhibition; settings: 72 h, IL-2 2.5 ng/mL
Method: as §1

[16] = tested on: normal primary NK cells, pool 3 (3 donors) (IL-2 2.5 ng/mL); assay: as above; settings: 72 h
KAI3 (IL-2 2.5 ng/mL) [17] = assay: as above; settings: 72 h
[18] = tested on: normal primary NK cells, pool 1 (3 donors) (IL-2 2.5 ng/mL); assay: as above; settings: 72 h
SNK-6 (IL-2 2.5 ng/mL) [19] = assay: as above; settings: 72 h
KHYG-1 (IL-2 2.5 ng/mL) [20] = assay: as above; settings: 72 h
[21] = tested on: normal primary NK cells, pool 2 (3 donors) (IL-2 2.5 ng/mL); assay: as above; settings: 72 h
NK-92 (IL-2 2.5 ng/mL) [22] = assay: as above; settings: 72 h
YT (IL-2 2.5 ng/mL) [23] = assay: as above; settings: 72 h
DERL-7 (IL-2 2.5 ng/mL) [24] = assay: as above; settings: 72 h
[25] = tested on: normal primary NK cells, pool 1 (3 donors), resting (IL-2 0 ng/mL); assay: as above; settings: 72 h
NKL (IL-2 2.5 ng/mL) [26] = assay: as above; settings: 72 h
NK-YS (IL-2 2.5 ng/mL) [27] = assay: as above; settings: 72 h
IMC-1 (IL-2 20 ng/mL) [28] = assay: as above; settings: 72 h

O=C(NC1CCNCC1)c1n[nH]cc1NC(=O)c1c(Cl)cccc1Cl [AT7519] (max concentration tested 10000 nM)
Settings	drug sensitivity score
DERL-7 (IL-2 2.5 ng/mL) [10]	17.3
IMC-1 (IL-2 20 ng/mL) [14]	17.4
KAI3 (IL-2 2.5 ng/mL) [3]	16.3
KHYG-1 (IL-2 2.5 ng/mL) [6]	12.7
NK-92 (IL-2 2.5 ng/mL) [8]	9.5
NK-YS (IL-2 2.5 ng/mL) [13]	18.9
NKL (IL-2 2.5 ng/mL) [12]	20.3
SNK-6 (IL-2 2.5 ng/mL) [5]	9.33
YT (IL-2 2.5 ng/mL) [9]	15.6
[1]	17.5
[2]	16.8
[4]	18.6
[7]	17.2
[11]	15.1

percent inhibition of viability [%]
Settings	1 nM	10 nM	100 nM	1000 nM	10000 nM
DERL-7 (IL-2 2.5 ng/mL) [24]	3.68	-3.37	-6.6	99.2	100
IMC-1 (IL-2 20 ng/mL) [28]	5.46	1.26	-0.14	96.8	96.4
KAI3 (IL-2 2.5 ng/mL) [17]	1.05	-1.69	4.7	86.2	94
KHYG-1 (IL-2 2.5 ng/mL) [20]	-2.18	-4.7	1.67	61.9	96.3
NK-92 (IL-2 2.5 ng/mL) [22]	-10.5	-1.16	-2.58	32.2	90.7
NK-YS (IL-2 2.5 ng/mL) [27]	-2.23	-4.04	9.45	96.6	93.7
NKL (IL-2 2.5 ng/mL) [26]	1.32	5.88	13.8	102	97.5
SNK-6 (IL-2 2.5 ng/mL) [19]	6.43	-7.68	0.7	50.8	48.4
YT (IL-2 2.5 ng/mL) [23]	0.46	-3.64	6.82	79.9	97
[15]	-3.7	0.1	-4.47	99.1	100
[16]	-13.9	-11.2	-5.85	94.7	98.8
[18]	-13.5	-8.03	6.78	96.9	97.9
[21]	-5.51	-3.1	0.18	95.2	95.8
[25]	-42.2	-37.4	-20.6	90.1	89.6

O=C1CCC(N2C(=O)c3ccccc3C2=O)C(=O)N1 (configuration not stated) [Thalidomide] (max concentration tested 10000 nM)
Settings	drug sensitivity score
DERL-7 (IL-2 2.5 ng/mL) [10]	0
IMC-1 (IL-2 20 ng/mL) [14]	0.03
KAI3 (IL-2 2.5 ng/mL) [3]	0.11
KHYG-1 (IL-2 2.5 ng/mL) [6]	0.01
NK-92 (IL-2 2.5 ng/mL) [8]	0.43
NK-YS (IL-2 2.5 ng/mL) [13]	0.86
NKL (IL-2 2.5 ng/mL) [12]	0.91
SNK-6 (IL-2 2.5 ng/mL) [5]	0
YT (IL-2 2.5 ng/mL) [9]	1.05
[1]	0.4
[2]	0
[4]	0
[7]	0
[11]	0

percent inhibition of viability [%]
Settings	1 nM	10 nM	100 nM	1000 nM	10000 nM
DERL-7 (IL-2 2.5 ng/mL) [24]	-4.35	1.66	0.7	-4.56	-10.4
IMC-1 (IL-2 20 ng/mL) [28]	-2.34	-2.83	3.91	5.3	12
KAI3 (IL-2 2.5 ng/mL) [17]	-9.63	-11.1	-3.59	-3.95	14.6
KHYG-1 (IL-2 2.5 ng/mL) [20]	-4.12	-6.62	0.67	6.18	10.3
NK-92 (IL-2 2.5 ng/mL) [22]	-15.9	-8.74	-9.71	7.78	12.7
NK-YS (IL-2 2.5 ng/mL) [27]	-5.98	-8.88	-3.38	8.1	15.2
NKL (IL-2 2.5 ng/mL) [26]	-18.5	-7.52	-3.52	13.7	11.1
SNK-6 (IL-2 2.5 ng/mL) [19]	-14.3	8.65	-18.4	-31.5	-27.8
YT (IL-2 2.5 ng/mL) [23]	-9.26	-7.23	-5.25	-0.15	26.5
[15]	-14.8	-5.18	-6.96	6.59	12.7
[16]	-10.6	-12.8	-2.32	1.72	4.5
[18]	0.86	-2.62	18.8	-1.53	5.13
[21]	-7.68	-2.29	0.16	8.57	7.78
[25]	6	-5.13	20	-1.84	-5.2

CCc1c(C(=O)C(N)=O)c2c(OCC(=O)O)cccc2n1Cc1ccccc1 [Varespladib] (max concentration tested 10000 nM)
Settings	drug sensitivity score
DERL-7 (IL-2 2.5 ng/mL) [10]	0
IMC-1 (IL-2 20 ng/mL) [14]	0
KAI3 (IL-2 2.5 ng/mL) [3]	0.68
KHYG-1 (IL-2 2.5 ng/mL) [6]	0
NK-92 (IL-2 2.5 ng/mL) [8]	1.34
NK-YS (IL-2 2.5 ng/mL) [13]	0.22
NKL (IL-2 2.5 ng/mL) [12]	0
SNK-6 (IL-2 2.5 ng/mL) [5]	0
YT (IL-2 2.5 ng/mL) [9]	0.02
[1]	0
[2]	0
[4]	0
[7]	0
[11]	2.05

percent inhibition of viability [%]
Settings	1 nM	10 nM	100 nM	1000 nM	10000 nM
DERL-7 (IL-2 2.5 ng/mL) [24]	-6.07	2.76	-0.45	-1.82	-5.52
IMC-1 (IL-2 20 ng/mL) [28]	-6.89	-8.73	-5.72	-2.45	-3.95
KAI3 (IL-2 2.5 ng/mL) [17]	-1.85	-2.11	-10.8	-0.18	21.5
KHYG-1 (IL-2 2.5 ng/mL) [20]	-3.76	-11.3	-0.03	8.53	2.8
NK-92 (IL-2 2.5 ng/mL) [22]	-21.4	-19.5	-14.8	-0.75	31.5
NK-YS (IL-2 2.5 ng/mL) [27]	-2.2	-6.12	-3.85	2.05	12.8
NKL (IL-2 2.5 ng/mL) [26]	-9.5	-5.06	-13.2	2.87	-9.38
SNK-6 (IL-2 2.5 ng/mL) [19]	-7.52	-21.8	-13.8	-2.84	6.58
YT (IL-2 2.5 ng/mL) [23]	-8.21	-8.83	-14.4	-11.3	13.2
[15]	-11.2	-11.6	-12.4	3.91	4.13
[16]	-8.31	-9.39	-3.85	-0.09	3.01
[18]	-5.21	-8.55	9.76	0.64	7.95
[21]	-5.85	-4.05	1.84	6.26	5.5
[25]	-21.1	-19.8	7.01	11.6	26.9
